In ChEMBL document CHEMBL5149973, “Agaricus bisporus-Derived Glucosamine Hydrochloride Facilitates Skeletal Injury Repair through Bmp Signaling in Zebrafish Osteoporosis Model” (J Nat Prod, 2021):
The source made the active and inactive calls. The rule behind the calls is not given here.

Columns and labels:
Danio rerio [1] = species on record: Danio rerio; assay: Induction of Zebrafish embryo skeletal development assessed as upregulation of […] gene expression in dent at 0.01 to 0.3 % measured after 72 hrs post fertilization by […] analysis; type: functional, tissue-based; conditions: dose 0.01-0.3 %
Osteoblast [2] = assay: Induction of osteoblast differentiation in transgenic osx mCherry Zebrafish embryo assessed as increase in Sox9a mRNA expression in fin at 0.1 % measured after 15 days by semiquantitative PCR analysis; type: functional, tissue-based; conditions: Danio rerio, time 15.0 day
Danio rerio [3] = species on record: Danio rerio; assay: Anti-osteoporosis activity in FAC-induced skeletal injury Zebrafish assessed as increase in cumulative bone optical density in spine at 0.1 % measured for 10 day post fertilization; type: functional, organism-based
Danio rerio [4] = species on record: Danio rerio; assay: Induction of Zebrafish embryo skeletal development assessed as upregulation of col10a1a gene expression in branchiostegal at 0.01 to 0.3 % measured after 72 hrs post fertilization by […] analysis; type: functional; conditions: dose 0.01-0.3 %
Danio rerio [5] = species on record: Danio rerio; assay: Induction of Zebrafish embryo skeletal development assessed as upregulation of col1a2 gene expression at 0.05 to 0.3 % measured after 72 hrs post fertilization by […] analysis; type: functional, tissue-based; conditions: dose 0.05-0.3 %
Osteoblast [6] = assay: Induction of osteoblast differentiation in transgenic osx mCherry Zebrafish embryo assessed as increase in Sox9b mRNA expression in fin at 0.1 % measured after 15 days by semiquantitative PCR analysis; type: functional, tissue-based; conditions: Danio rerio, time 15.0 day
Danio rerio [7] = species on record: Danio rerio; assay: Induction of Zebrafish embryo skeletal development assessed as increase in Bmp2b mRNA expression level in gastrula stage at 0.05 to 0.1 % measured at 24 hrs post fertilization by ISH analysis; type: functional, tissue-based; conditions: dose 0.05-0.1 %
Danio rerio [8] = species on record: Danio rerio; assay: Induction of Zebrafish embryo skeletal development assessed as increase in Bmp4 mRNA expression level in bud region at 0.1 to 0.3 % measured at 24 hrs post fertilization by ISH analysis; type: functional, tissue-based; conditions: dose 0.1-0.3 %
Danio rerio [9] = species on record: Danio rerio; assay: Induction of Zebrafish embryo skeletal development assessed as nuclear localization of p-Smad1 in tail at 0.1 % measured at 24 to 72 hrs post fertilization by DAPI staining based analysis; type: functional, tissue-based; conditions: time 24-72 hrs
Danio rerio [10] = species on record: Danio rerio; assay: Suppression of Bmp signaling in Zebrafish embryos assessed as decrease in Col10a1a gene expression level at 0.1 % measured at 26 hrs post fertilization by semiquantitative PCR analysis; type: functional, tissue-based; conditions: Embryo
Danio rerio [11] = species on record: Danio rerio; assay: Induction of Zebrafish embryo skeletal development assessed as increase in Bmp2b mRNA expression level in head at 0.1 to 0.3 % measured at 24 hrs post fertilization by ISH analysis; type: functional, tissue-based; conditions: dose 0.1-0.3 %
Danio rerio [12] = species on record: Danio rerio; assay: Induction of Zebrafish embryo skeletal development assessed as increase in Smad5 gene expression level in head at 0.1 % measured for 0.75 to 24 hrs post fertilization by ISH analysis; type: functional, tissue-based; conditions: time 0.75-24 hrs
Danio rerio [13] = species on record: Danio rerio; assay: Induction of Zebrafish embryo skeletal development assessed as upregulation of col10a1a gene expression in palatoquadrate at 0.01 to 0.3 % measured after 72 hrs post fertilization by […] analysis; type: functional, tissue-based; conditions: dose 0.01-0.3 %
Danio rerio [14] = species on record: Danio rerio; assay: Anti-osteoporosis activity in FAC-induced skeletal injury Zebrafish larvae assessed as increase in Sox9b mRNA expression level measured for 10 day post fertilization by semiquantitative-PCR analysis; type: functional, organism-based; conditions: Larva
Danio rerio [15] = species on record: Danio rerio; assay: Suppression of Bmp signaling in Zebrafish embryos assessed as decrease in Sox9b gene expression level at 0.1 % measured at 26 hrs post fertilization by semiquantitative PCR analysis; type: functional, tissue-based; conditions: Embryo
Danio rerio [16] = species on record: Danio rerio; assay: Anti-osteoporosis activity in FAC-induced skeletal injury Zebrafish larvae assessed as rescue of bone damage measured for 10 day post fertilization by Alizarin red staining based assay; type: functional, organism-based; conditions: Larva
Danio rerio [17] = species on record: Danio rerio; assay: Suppression of Bmp signaling in Zebrafish embryos assessed as decrease in Sox9a gene expression level at 0.1 % measured at 26 hrs post fertilization by semiquantitative PCR analysis; type: functional, tissue-based; conditions: Embryo
[18] = Induction of Zebrafish embryo skeletal development assessed as mortality rate of embryo at 0.01 % measured after 72 hrs post fertilization by Alcian blue staining based assay; type: functional, Danio rerio
Danio rerio [19] = species on record: Danio rerio; assay: Induction of Zebrafish embryo skeletal development assessed as increase in Bmp7a mRNA expression level in gastrula stage at 0.05 to 0.1 % measured at 24 hrs post fertilization by ISH analysis; type: functional, tissue-based; conditions: dose 0.05-0.1 %
Danio rerio [20] = species on record: Danio rerio; assay: Induction of Zebrafish embryo skeletal development assessed as increase in Smad1 gene expression level in spine at 0.1 % measured for 0.75 to 24 hrs post fertilization by ISH analysis; type: functional, tissue-based; conditions: time 0.75-24 hrs
Danio rerio [21] = species on record: Danio rerio; assay: Induction of Zebrafish embryo skeletal development assessed as increase in gfp expression level in ventral head at 0.05 to 0.3 % measured at 24 to 72 hrs post fertilization by DAPI staining based analysis; type: functional, tissue-based; conditions: dose 0.05-0.3 %, time 24-72 hrs
Danio rerio [22] = species on record: Danio rerio; assay: Suppression of Bmp signaling in mCherry Zebrafish embryos assessed as increase in colocalization in tail by measuring fluorescence intensity at 0.1 % measured at 36 hrs post fertilization; type: functional, organism-based; conditions: Embryo
[23] = Induction of Zebrafish Larva cartilage development assessed as increase in H1 phenotype ratio at 0.1 % measured after 5 days post fertilization by Alcian blue staining based assay; type: functional, Danio rerio; conditions: time 5 day
Danio rerio [24] = species on record: Danio rerio; assay: Induction of Zebrafish Larva caudal fin regeneration assessed as increase in bone mass measured for 15 days by Calcein staining based assay; type: functional; conditions: time 15.0 day
Danio rerio [25] = species on record: Danio rerio; assay: Induction of Zebrafish embryo skeletal development assessed as increase in Bmp2b mRNA expression level in bud region at 0.1 to 0.3 % measured at 24 hrs post fertilization by ISH analysis; type: functional, tissue-based; conditions: dose 0.1-0.3 %
Danio rerio [26] = species on record: Danio rerio; assay: Induction of Zebrafish embryo skeletal development assessed as increase in Bmp4 mRNA expression level in gastrula stage at 0.05 to 0.1 % measured at 24 hrs post fertilization by ISH analysis; type: functional, tissue-based; conditions: dose 0.05-0.1 %
Danio rerio [27] = species on record: Danio rerio; assay: Induction of Zebrafish embryo skeletal development assessed as increase in Smad1 gene expression level in coccygeal vertebra at 0.1 % measured for 0.75 to 24 hrs post fertilization by ISH analysis; type: functional, tissue-based; conditions: time 0.75-24 hrs
Danio rerio [28] = species on record: Danio rerio; assay: Suppression of Bmp signaling in Zebrafish embryos assessed as decrease in sp7 gene expression level at 0.1 % measured at 26 hrs post fertilization by semiquantitative PCR analysis; type: functional, tissue-based; conditions: Embryo
[29] = Induction of Zebrafish embryo skeletal development assessed as mortality rate of embryo at 0.05 % measured after 72 hrs post fertilization by Alcian blue staining based assay; type: functional, Danio rerio
[30] = Induction of Zebrafish Larva cartilage development assessed as increase in H2 phenotype ratio at 0.3 % measured after 5 days post fertilization by Alcian blue staining based assay; type: functional, Danio rerio; conditions: time 5 day
Danio rerio [31] = species on record: Danio rerio; assay: Anti-osteoporosis activity in FAC-induced skeletal injury Zebrafish larvae assessed as increase in Sox9a mRNA expression level measured for 10 day post fertilization by semiquantitative-PCR analysis; type: functional, organism-based; conditions: Larva
Danio rerio [32] = species on record: Danio rerio; assay: Anti-osteoporosis activity in FAC-induced skeletal injury Zebrafish assessed as rescue of skeletal density in head at 0.1 % measured for 10 day post fertilization; type: functional, organism-based
Danio rerio [33] = species on record: Danio rerio; assay: Suppression of Bmp signaling in Zebrafish embryos assessed as decrease in Bmp2b gene expression level at 0.1 % measured at 26 hrs post fertilization by semiquantitative PCR analysis; type: functional, tissue-based; conditions: Embryo
Danio rerio [34] = species on record: Danio rerio; assay: Induction of Zebrafish embryo skeletal development assessed as increase in Bmp2b mRNA expression level in head at 0.1 % measured at 72 hrs post fertilization; type: functional, tissue-based

Cl.N[C@@H]1[C@@H](O)[C@H](O)[C@@H](CO)O[C@H]1O
Activity (Danio rerio [1]): Active
Activity (Osteoblast [2]): Active
Activity (Danio rerio [3]): Active
Activity (Danio rerio [4]): Active
Activity (Danio rerio [5]): Active
Activity (Osteoblast [6]): Active
Activity (Danio rerio [7]): Active
Activity (Danio rerio [8]): Active
Activity (Danio rerio [9]): Active
Activity (Danio rerio [10]): Active
Activity (Danio rerio [11]): Active
Activity (Danio rerio [12]): Active
Activity (Danio rerio [13]): Active
Activity (Danio rerio [14]): Active
Activity (Danio rerio [15]): Active
Activity (Danio rerio [16]): Active
Activity (Danio rerio [17]): Active
Activity [18]: 12%
Activity (Danio rerio [19]): Active
Activity (Danio rerio [20]): Active
Activity (Danio rerio [21]): Active
Activity (Danio rerio [22]): Active
Activity [23]: 40%
Activity (Danio rerio [24]): Active
Activity (Danio rerio [25]): Active
Activity (Danio rerio [26]): Active
Activity (Danio rerio [27]): Active
Activity (Danio rerio [28]): Active
Activity [29]: 16%
Activity [30]: 50%
Activity (Danio rerio [31]): Active
Activity (Danio rerio [32]): Active
Activity (Danio rerio [33]): Active
Activity (Danio rerio [34]): Active
